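Method: 48-hour compound exposure of cells in 96-well plates, five concentrations, linear interpolation of endpoints. The concentration for 50% growth inhibition is given as GI50.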 Active and inactive are the calls of the source. No stated cut-off is given here; in the data, active = GI50 up to about 1.1 µM and inactive = higher.
How the values were obtained:
Experiment in all cases: growth of human tumour cells (NCI), 48 h
SK-MEL-5 = test system: SK-MEL-5
SF-295 = test system: SF-295
SF-268 = test system: SF-268
UO-31 = test system: UO-31
UACC-257 = test system: UACC-257
U-251 = test system: U-251
HOP-62 = test system: HOP-62
SW-620 = test system: SW-620
IGROV-1 = test system: IGROV-1
HCT-116 = test system: HCT-116
ACHN = test system: ACHN
A498 = test system: A498
HT-29 = test system: HT-29
RPMI-8226 = test system: RPMI-8226
RXF 393 = test system: RXF 393

SMILES	GI50 (SK-MEL-5)	GI50 (SF-295)	GI50 (SF-268)	GI50 (UO-31)	GI50 (UACC-257)	GI50 (U-251)	GI50 (HOP-62)	GI50 (SW-620)	GI50 (IGROV-1)	GI50 (HCT-116)	GI50 (ACHN)	GI50 (A498)	GI50 (HT-29)	GI50 (RPMI-8226)	GI50 (RXF 393)
COc1ccc([C@H]2CC3C(=O)N(c4ccc(OC)cc4)C(=O)C3c3[nH]c4ccccc4c32)cc1 (stereo partly drawn)	46.3 µM (inactive)	16.7 µM (inactive)	82 µM (inactive)	> 100 µM (inactive)	> 100 µM (inactive)	59.6 µM (inactive)	32.7 µM (inactive)	45.6 µM (inactive)	> 100 µM (inactive)	9.31 µM (inactive)	> 100 µM (inactive)	> 100 µM (inactive)	–	–	–
CC12CC/C(=N/NC(N)=O)C3C1CCCC32	> 100 µM (inactive)	> 100 µM (inactive)	> 100 µM (inactive)	> 100 µM (inactive)	> 100 µM (inactive)	> 100 µM (inactive)	> 100 µM (inactive)	> 100 µM (inactive)	> 100 µM (inactive)	> 100 µM (inactive)	> 100 µM (inactive)	> 100 µM (inactive)	> 100 µM (inactive)	> 100 µM (inactive)	–
N#[N+][c-]1c(-c2ccccc2)n[nH]c1=O	–	> 100 µM (inactive)	> 100 µM (inactive)	–	> 100 µM (inactive)	> 100 µM (inactive)	–	> 100 µM (inactive)	> 100 µM (inactive)	> 100 µM (inactive)	> 100 µM (inactive)	–	> 100 µM (inactive)	> 100 µM (inactive)	> 100 µM (inactive)
COc1ccc(/C=C/C(=O)c2sc(-c3cccnc3)nc2C)cc1	30.3 µM (inactive)	35.8 µM (inactive)	74.6 µM (inactive)	41.7 µM (inactive)	> 100 µM (inactive)	58.3 µM (inactive)	63.7 µM (inactive)	32.8 µM (inactive)	60.1 µM (inactive)	–	–	> 100 µM (inactive)	36.9 µM (inactive)	2.9 µM (inactive)	26.3 µM (inactive)
CSC(=O)C[C@@]12O[C@@H]([C@@H](C)C3CCC4[C@@H]5C(O)CC6=CC(=O)C=C[C@]6(C)C5CC[C@@]43C)C[C@](C)(O1)C(C)(C)O2 (stereo partly drawn)	–	14.5 µM (inactive)	16.4 µM (inactive)	12.3 µM (inactive)	12.6 µM (inactive)	12.5 µM (inactive)	18.2 µM (inactive)	17.3 µM (inactive)	16.1 µM (inactive)	12.8 µM (inactive)	–	16.4 µM (inactive)	14.5 µM (inactive)	4.8 µM (inactive)	11.6 µM (inactive)
CC1CC2C3CCC4=CC(=O)C=CC4(C)C3(F)C(O)CC2(C)C1(O)C(=O)CO.Cc1nnc(NS(=O)(=O)c2ccc(/N=N/c3cc(/N=N/c4ccc(S(=O)(=O)Nc5nnc(C)s5)cc4)c4c(NC(=O)C(Cl)Cl)cccc4c3OC(=O)C(Cl)Cl)cc2)s1	22.4 µM (inactive)	42.3 µM (inactive)	24 µM (inactive)	46.7 µM (inactive)	38.5 µM (inactive)	37.1 µM (inactive)	88.5 µM (inactive)	22.6 µM (inactive)	24.5 µM (inactive)	15 µM (inactive)	–	30.1 µM (inactive)	8.85 µM (inactive)	< 0.01 µM (active)	21.2 µM (inactive)
CSc1sc(=S)sc1C(=O)N(C)c1ccccc1	> 100 µM (inactive)	> 100 µM (inactive)	> 100 µM (inactive)	> 100 µM (inactive)	–	> 100 µM (inactive)	> 100 µM (inactive)	> 100 µM (inactive)	> 100 µM (inactive)	> 100 µM (inactive)	> 100 µM (inactive)	–	> 100 µM (inactive)	52.7 µM (inactive)	81.5 µM (inactive)
COc1ccc(-c2cc(-c3cc(Cl)cc(Br)c3O)nc(O)n2)cc1	–	18 µM (inactive)	16.3 µM (inactive)	17.3 µM (inactive)	17.7 µM (inactive)	17 µM (inactive)	14.1 µM (inactive)	20.7 µM (inactive)	20.4 µM (inactive)	12.2 µM (inactive)	14.2 µM (inactive)	16.6 µM (inactive)	17.7 µM (inactive)	18.8 µM (inactive)	14.5 µM (inactive)
CC(C)c1ccccc1NC(=O)CCC(=O)NN	–	> 100 µM (inactive)	> 100 µM (inactive)	> 100 µM (inactive)	> 100 µM (inactive)	> 100 µM (inactive)	–	> 100 µM (inactive)	> 100 µM (inactive)	> 100 µM (inactive)	> 100 µM (inactive)	–	–	> 100 µM (inactive)	–
CC(/C=C/NNC1=NN=C(c2ccccc2)C(c2ccccc2)N1)Sc1ccccc1N (stereo not drawn)	9.66 µM (inactive)	10.5 µM (inactive)	4.53 µM (inactive)	6.53 µM (inactive)	7.06 µM (inactive)	2.34 µM (inactive)	17.9 µM (inactive)	2.75 µM (inactive)	14.4 µM (inactive)	6.14 µM (inactive)	10.4 µM (inactive)	13.6 µM (inactive)	11 µM (inactive)	3.64 µM (inactive)	–
CC1(C)Oc2ccccc2N2O[C@@H]3C(=O)N(c4ccccc4)C(=O)[C@@H]3C21c1ccccc1 (stereo partly drawn)	23 µM (inactive)	15.7 µM (inactive)	33.9 µM (inactive)	66.1 µM (inactive)	34 µM (inactive)	25 µM (inactive)	16.8 µM (inactive)	34.4 µM (inactive)	47.5 µM (inactive)	20.8 µM (inactive)	–	20.8 µM (inactive)	29 µM (inactive)	37.8 µM (inactive)	23.7 µM (inactive)
CCSc1nnc(-c2ccccc2)nc1Cc1ccc(OC)cc1	–	52.5 µM (inactive)	> 100 µM (inactive)	> 100 µM (inactive)	56.5 µM (inactive)	79.6 µM (inactive)	> 100 µM (inactive)	> 100 µM (inactive)	> 100 µM (inactive)	38.5 µM (inactive)	77.8 µM (inactive)	77.6 µM (inactive)	> 100 µM (inactive)	81.8 µM (inactive)	> 100 µM (inactive)
NCCSc1cc(O)c2c(c1N)C(=O)c1ccccc1C2=O	12.9 µM (inactive)	46 µM (inactive)	55.8 µM (inactive)	> 100 µM (inactive)	–	58.7 µM (inactive)	> 100 µM (inactive)	33.1 µM (inactive)	18.8 µM (inactive)	34 µM (inactive)	43.8 µM (inactive)	91.2 µM (inactive)	34.1 µM (inactive)	–	27.7 µM (inactive)
O=C1CC2=CCCC2O1 (stereo not drawn)	> 100 µM (inactive)	> 100 µM (inactive)	> 100 µM (inactive)	> 100 µM (inactive)	> 100 µM (inactive)	> 100 µM (inactive)	> 100 µM (inactive)	> 100 µM (inactive)	> 100 µM (inactive)	> 100 µM (inactive)	–	> 100 µM (inactive)	> 100 µM (inactive)	> 100 µM (inactive)	> 100 µM (inactive)

Source: ChEMBL document CHEMBL1201862, “PubChem BioAssay data set” (2004)
